Laboratory results reported in patent US20080255080A1, “Hydroquinone Ansamycin Formulations” (priority 2007, published 2008).

Assay: Solubility in aqueous solutions
Type: physicochemical
Procedure: The hydroquinones provided herein may be converted into salt form by reaction with an acid, or by reaction with an acid halide of an amino acid. In the examples, the C-17 alkyl amino group is protonated to generate a C-17 ammonium salt hydroquinone geldanamycin analog. In addition, the C-17 ammonium salt hydroquinones formed have the added benefit of being highly soluble in aqueous solutions (solubility >200 mg/mL), unlike 17-AAG (solubility <100 μg/mL).

C=CCNC1=C2C[C@@H](C)C[C@H](OC)[C@H](O)[C@@H](C)/C=C(\C)[C@H](OC(N)=O)[C@@H](OC)/C=C\C=C(/C)C(=O)NC(=CC1=O)C2=O [Compound 17-AAG]
solubility: < 100 µg/mL
